In PubChem BioAssay (NCI) one finds TGI data, which are given here for eight compounds.

Test systems include SF-539 CNS; EKVX NSCLC; HCT-116 colon; SW-620 colon; MALME-3M melanoma; SK-MEL-5 melanoma; BT-549 breast; HS 578T breast; MDA-MB-231 breast; UACC-62 melanoma; TK-10 renal; HOP-62 NSCLC; K-562 leukemia; 786-0 renal; UACC-257 melanoma; NCI/ADR-RES ovarian; SR leukemia; PC-3 prostate; ACHN renal.
Common to all, as to assay: NCI-60 cell line screen, 48 h

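Where inhibition never reached the appropriate level, the endpoint shown equals the highest concentration tested. Otherwise, values were interpolated linearly from a five-concentration, 48-hour dose response in 96-well plates. The concentration for full growth arrest is given as TGI.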 Where only a bound is given, the exact number is not on record here.

With `C[C@@H]1CCC2[C@@H](C)[C@H](O[C@H]3O[C@@H]4O[C@@]5(C)CCC6[C@H](C)CCC([C@H]3C)[C@]64OO5)O[C@@H]3O[C@@]4(C)CCC1[C@@]23OO4` (some centres not stated), the TGI was determined as 21.9 µM in the experiment on SF-539 CNS; 18.7 µM in the experiment with EKVX NSCLC; 12.7 µM in the experiment on HCT-116 colon; 16.5 µM with SW-620 colon; 19.1 µM in the experiment with MALME-3M melanoma; 12.8 µM with SK-MEL-5 melanoma. In addition, the TGI in the experiment on BT-549 breast was 14.7 µM; in the experiment with HS 578T breast, 24.2 µM; in the experiment with MDA-MB-231 breast, 13.1 µM; in the experiment on UACC-62 melanoma, 15.9 µM; with TK-10 renal, 17.2 µM; in the experiment on HOP-62 NSCLC, 25.5 µM. In addition, the TGI in the experiment on K-562 leukemia is above 100 µM; with 786-0 renal, 18 µM; in the experiment with UACC-257 melanoma, 18.6 µM; in the experiment with NCI/ADR-RES ovarian it was 15.5 µM; in the experiment with SR leukemia it was 1.28 µM; in the experiment with PC-3 prostate, 12.5 µM. In the experiment on ACHN renal, the TGI was 14.2 µM.

On to `CCCCOP(=O)(OCCCC)/C(C#N)=C/c1ccc(C)o1`, for which the TGI was above 100 µM in the experiment on SF-539 CNS; above 100 µM in the experiment on EKVX NSCLC; above 100 µM with HCT-116 colon; above 100 µM in the experiment on SW-620 colon; 99.2 µM in the experiment on MALME-3M melanoma; 76.1 µM in the experiment on SK-MEL-5 melanoma. For the same compound, the TGI in the experiment with BT-549 breast was 43 µM; with HS 578T breast it was above 100 µM; in the experiment on MDA-MB-231 breast, above 100 µM; in the experiment with UACC-62 melanoma, above 100 µM; in the experiment on TK-10 renal it was above 100 µM; with HOP-62 NSCLC it was above 100 µM. Besides, the TGI in the experiment with K-562 leukemia is 71.3 µM; in the experiment with 786-0 renal, above 100 µM; in the experiment on UACC-257 melanoma, above 100 µM; in the experiment on NCI/ADR-RES ovarian it was 64.4 µM; in the experiment with SR leukemia, above 100 µM; in the experiment on PC-3 prostate, 51.4 µM. In the experiment with ACHN renal, this compound had a TGI above 100 µM.

Turning to `CSc1c(CC(=O)O)n(Cc2ccccc2)c2ccccc12`, the TGI in the experiment with SF-539 CNS, in the experiment with EKVX NSCLC, in the experiment with HCT-116 colon, in the experiment on SW-620 colon, in the experiment on MALME-3M melanoma and in the experiment on SK-MEL-5 melanoma was above 100 µM each time. Besides, the TGI in the experiment with BT-549 breast, with HS 578T breast, with MDA-MB-231 breast, with UACC-62 melanoma, in the experiment on TK-10 renal and with HOP-62 NSCLC was above 100 µM in each case. For the same compound, the TGI in the experiment with K-562 leukemia, in the experiment on 786-0 renal, in the experiment with UACC-257 melanoma, in the experiment with NCI/ADR-RES ovarian, in the experiment with SR leukemia and with PC-3 prostate was above 100 µM in each case. Also, in the experiment with ACHN renal, the TGI is above 100 µM.

For `CCOC(=O)N1CC2(C(=O)OC)C=CC1C(C(=O)OC)C2` (configuration not stated), the TGI in the experiment on SF-539 CNS, in the experiment on EKVX NSCLC, with HCT-116 colon, in the experiment with SW-620 colon, with MALME-3M melanoma and in the experiment with SK-MEL-5 melanoma was above 100 µM each time. For the same compound, the TGI with BT-549 breast, in the experiment on HS 578T breast, in the experiment with MDA-MB-231 breast, in the experiment with UACC-62 melanoma, with TK-10 renal and in the experiment with HOP-62 NSCLC was above 100 µM each time. Further, the TGI in the experiment with K-562 leukemia, with 786-0 renal, in the experiment with UACC-257 melanoma, with NCI/ADR-RES ovarian, in the experiment on SR leukemia and in the experiment on PC-3 prostate was above 100 µM throughout. The compound also returned a TGI with ACHN renal above 100 µM.

Turning to `OCCOCCN1CCN(c2nc(N3CCCC3)c3nc(Cl)c(NCc4ccccc4)nc3n2)CC1`, the TGI amounted to 88.3 µM in the experiment with SF-539 CNS; 27.1 µM with EKVX NSCLC; 26.4 µM in the experiment on HCT-116 colon; 44.6 µM in the experiment with SW-620 colon; 29.9 µM with MALME-3M melanoma; 17.9 µM in the experiment with SK-MEL-5 melanoma. Further, the TGI with BT-549 breast turned out to be 29.1 µM; with HS 578T breast, 43.5 µM; in the experiment with MDA-MB-231 breast, 32.7 µM; in the experiment with UACC-62 melanoma, 27.3 µM; with TK-10 renal, 25 µM; in the experiment with HOP-62 NSCLC, 26.7 µM. Further, the TGI in the experiment on K-562 leukemia came out at 16.4 µM; in the experiment on 786-0 renal, 26.5 µM; with UACC-257 melanoma, 27.4 µM; with NCI/ADR-RES ovarian, 31.1 µM; in the experiment on SR leukemia, 17.8 µM; with PC-3 prostate it was 27.1 µM. In addition, in the experiment with ACHN renal, the TGI is 27.2 µM.

With `Cn1c(N(CCO)CCO)cnc1[N+](=O)[O-]`, the TGI in the experiment with SF-539 CNS, in the experiment on EKVX NSCLC, in the experiment on HCT-116 colon, in the experiment on SW-620 colon, in the experiment with MALME-3M melanoma and with SK-MEL-5 melanoma was above 100 µM in each case. Further, the TGI in the experiment on BT-549 breast, in the experiment with HS 578T breast, in the experiment on MDA-MB-231 breast, in the experiment on UACC-62 melanoma, in the experiment on TK-10 renal and in the experiment on HOP-62 NSCLC was above 100 µM in each case. The TGI with K-562 leukemia, with 786-0 renal, with UACC-257 melanoma, in the experiment on NCI/ADR-RES ovarian, in the experiment with SR leukemia and with PC-3 prostate was above 100 µM in each case. The TGI in the experiment on ACHN renal was above 100 µM.

On to `Cn1c(=O)oc2cc(C(=S)N3CCC(Cc4ccccc4)CC3)ccc21`, for which the TGI with SF-539 CNS, with EKVX NSCLC, with HCT-116 colon, with SW-620 colon, with MALME-3M melanoma and in the experiment with SK-MEL-5 melanoma was above 100 µM each time. Further, the TGI with BT-549 breast, in the experiment with HS 578T breast, in the experiment on MDA-MB-231 breast, with UACC-62 melanoma, in the experiment on TK-10 renal and with HOP-62 NSCLC was above 100 µM each time. For the same compound, the TGI in the experiment with K-562 leukemia, with 786-0 renal, in the experiment on UACC-257 melanoma, in the experiment on NCI/ADR-RES ovarian, in the experiment with SR leukemia and in the experiment on PC-3 prostate was above 100 µM in each case. In the experiment on ACHN renal, this compound gave a TGI above 100 µM.

`COc1ccc(C(=O)/C=C2\c3ccccc3C(=O)N2C)cc1`: the TGI with SF-539 CNS, with EKVX NSCLC, in the experiment on HCT-116 colon, in the experiment on SW-620 colon, with MALME-3M melanoma and in the experiment on SK-MEL-5 melanoma was above 100 µM throughout. For the same compound, the TGI in the experiment on BT-549 breast, in the experiment with HS 578T breast, in the experiment with MDA-MB-231 breast, in the experiment with UACC-62 melanoma, in the experiment on TK-10 renal and in the experiment with HOP-62 NSCLC was above 100 µM in each case. In addition, the TGI in the experiment with K-562 leukemia, in the experiment on 786-0 renal, in the experiment on UACC-257 melanoma, with NCI/ADR-RES ovarian, with SR leukemia and in the experiment with PC-3 prostate was above 100 µM throughout. The TGI in the experiment with ACHN renal is above 100 µM.
